According to PubChem BioAssay AID248 (DTP/NCI, 2004):
Values joined by “and” are separate entries in the source; they are usually repeats but may differ in a detail not shown here. Identical values can stand only once. Inconclusive results and toxic doses are left out. Rule as the data show it: active = T/C of 150% or more; inactive = T/C below 125%.

Tested on: L1210 leukemia ip in BDF1 mice, survival T/C
Assay: NCI In Vivo Anticancer Drug Screen. Data for tumor model L1210 Leukemia (intraperitoneal) in B6D2F1 (BDF1) mice
Settings: endpoint: mean survival time, higher = longer survival
How it was run: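 Survival endpoint. Drug-treated group vs vehicle group, expressed as T divided by C. Tumor passaged by transplantation.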

[1] = dose: 100.0 mg/kg/injection, schedule: Q01DX009 (ip), vehicle: Klucel (hydroxypropylcellulose) (HPC)
[2] = dose: 200.0 mg/kg/injection, schedule: Q01DX009 (ip), vehicle: Klucel (hydroxypropylcellulose) (HPC)
[3] = dose: 100.0 mg/kg/injection, schedule: Q04DX003 (ip), vehicle: Klucel (hydroxypropylcellulose) (HPC)
[4] = dose: 200.0 mg/kg/injection, schedule: Q04DX003 (ip), vehicle: Klucel (hydroxypropylcellulose) (HPC)
[5] = dose: 400.0 mg/kg/injection, schedule: Q04DX003 (ip), vehicle: Klucel (hydroxypropylcellulose) (HPC)
[6] = dose: 100.0 mg/kg/injection, schedule: Q04DX003 (ip), vehicle: saline with Tween-80
[7] = dose: 200.0 mg/kg/injection, schedule: Q04DX003 (ip), vehicle: saline with Tween-80
[8] = dose: 400.0 mg/kg/injection, schedule: Q04DX003 (ip), vehicle: saline with Tween-80
[9] = dose: 50.0 mg/kg/injection, schedule: Q01DX009 (ip), vehicle: Klucel (hydroxypropylcellulose) (HPC)
[10] = dose: 100.0 mg/kg/injection, schedule: Q01DX001 (ip), vehicle: saline
[11] = dose: 100.0 mg/kg/injection, schedule: Q04DX002 (ip), vehicle: Klucel (hydroxypropylcellulose) (HPC)
[12] = dose: 200.0 mg/kg/injection, schedule: Q01DX001 (ip), vehicle: saline
[13] = dose: 200.0 mg/kg/injection, schedule: Q04DX002 (ip), vehicle: Klucel (hydroxypropylcellulose) (HPC)
[14] = dose: 400.0 mg/kg/injection, schedule: Q01DX001 (ip), vehicle: saline
[15] = dose: 400.0 mg/kg/injection, schedule: Q04DX002 (ip), vehicle: Klucel (hydroxypropylcellulose) (HPC)
[16] = dose: 100.0 mg/kg/injection, schedule: Q01DX009 (ip), vehicle: saline with Tween-80
[17] = dose: 200.0 mg/kg/injection, schedule: Q01DX009 (ip), vehicle: saline with Tween-80
[18] = dose: 400.0 mg/kg/injection, schedule: Q01DX009 (ip), vehicle: saline with Tween-80
[19] = dose: 50.0 mg/kg/injection, schedule: Q04DX003 (ip), vehicle: Klucel (hydroxypropylcellulose) (HPC)

Measured: T/C

CCOC(=O)C(C(=O)OCC)C(CC(=O)c1ccccc1)c1ccccc1 (configuration not stated)
inactive: [1] 98 % of control | [2] 93 % of control | dose: 400.0 mg/kg/injection, schedule: Q01DX009 (ip), vehicle: Klucel (hydroxypropylcellulose) (HPC) 94 % of control

NNC(=O)C(Sc1ccccc1)c1ccccc1 (configuration not stated)
inactive: [3] 95 % of control | [4] 98 % of control | [5] 101 % of control

CNS(=O)(=O)CCC(N)C(=O)O (configuration not stated)
inactive: [6] 97 % of control | [7] 103 % of control | [8] 97 % of control

CC(C)(C)SCC(NC(=O)OCc1ccccc1)C(=O)O (configuration not stated)
inactive: [9] 100 % of control | dose: 75.0 mg/kg/injection, schedule: Q01DX001 (ip), vehicle: Klucel (hydroxypropylcellulose) (HPC) 91 % of control | [1] 89 % of control | dose: 150.0 mg/kg/injection, schedule: Q01DX001 (ip), vehicle: Klucel (hydroxypropylcellulose) (HPC) 94 % of control | dose: 300.0 mg/kg/injection, schedule: Q01DX001 (ip), vehicle: Klucel (hydroxypropylcellulose) (HPC) 94 % of control

OC(c1nc2ccccc2[nH]1)C(O)C(O)C(O)c1nc2ccccc2[nH]1 (configuration not stated)
inactive: [10] 105 % of control | [11] 100 % of control | [12] 96 % of control | [13] 87 % of control | [14] 86 % of control | [15] 97 % of control

CCOC(=O)C(=CNc1ccccn1)C(=O)OCC
inactive: [16] 100 % of control | [6] 93 % of control | [17] 104 % of control | [7] 93 % of control | [18] 97 % of control | [8] 97 % of control

O=C(Nc1ccc(C2=NCCN2)cc1)C(=O)Nc1ccc(C2=NCCN2)cc1
inactive: dose: 15.0 mg/kg/injection, schedule: Q01DX Z (ip), vehicle: saline 101 % of control | dose: 30.0 mg/kg/injection, schedule: Q01DX Z (ip), vehicle: saline 118 % of control | dose: 60.0 mg/kg/injection, schedule: Q01DX Z (ip), vehicle: saline 124 % of control

C=CCc1c[nH]c(=O)[nH]c1=O
inactive: [19] 100 % of control | [3] 108 % of control and 91 % of control | [4] 97 % of control and 100 % of control | [5] 90 % of control

COc1cccc(CCCCO)c1
inactive: dose: 50.0 mg/kg/injection, schedule: Q01DX009 (ip), vehicle: saline with Tween-80 91 % of control | [16] 91 % of control

CN(C)CCCN1CCC2(CC1)NC(=O)NC2=O
inactive: dose: 100.0 mg/kg/injection, schedule: Q04DX002 (ip), vehicle: saline 103 % of control | dose: 200.0 mg/kg/injection, schedule: Q04DX002 (ip), vehicle: saline 103 % of control | dose: 400.0 mg/kg/injection, schedule: Q04DX002 (ip), vehicle: saline 103 % of control

CC(C)NC(=S)Nc1ccccc1
inactive: dose: 75.0 mg/kg/injection, schedule: Q01DX001 (ip), vehicle: other 102 % of control

CCOc1cc(N2CCOCC2)c(OCC)cc1N
inactive: dose: 6.0 mg/kg/injection, schedule: Q01DX009 (ip), vehicle: saline 103 % of control | dose: 12.0 mg/kg/injection, schedule: Q01DX009 (ip), vehicle: saline 100 % of control | dose: 12.0 mg/kg/injection, schedule: Q04DX003 (ip), vehicle: other 100 % of control | dose: 25.0 mg/kg/injection, schedule: Q01DX009 (ip), vehicle: saline 94 % of control | dose: 25.0 mg/kg/injection, schedule: Q04DX003 (ip), vehicle: other 95 % of control

NC1C2C3C=CC(C(C(=O)O)C3C(=O)O)C12 (configuration not stated)
inactive: [3] 98 % of control | [4] 102 % of control | [5] 101 % of control

O=C(O)c1cc([N+](=O)[O-])cc([N+](=O)[O-])c1O
inactive: dose: 100.0 mg/kg/injection, schedule: Q04DX002 (ip), vehicle: saline with Tween-80 113 % of control | dose: 200.0 mg/kg/injection, schedule: Q04DX002 (ip), vehicle: saline with Tween-80 104 % of control

Clc1ccc(N2CCNCC2)cc1
inactive: dose: 75.0 mg/kg/injection, schedule: Q01DX001 (ip), vehicle: saline 101 % of control

COc1cccc(/C=C/[N+](=O)[O-])c1
inactive: dose: 12.5 mg/kg/injection, schedule: Q01DX009 (ip), vehicle: Klucel (hydroxypropylcellulose) (HPC) 95 % of control | dose: 25.0 mg/kg/injection, schedule: Q01DX009 (ip), vehicle: Klucel (hydroxypropylcellulose) (HPC) 98 % of control | dose: 25.0 mg/kg/injection, schedule: Q04DX003 (ip), vehicle: Klucel (hydroxypropylcellulose) (HPC) 89 % of control | dose: 45.0 mg/kg/injection, schedule: Q04DX003 (ip), vehicle: saline with Tween-80 103 % of control | [9] 97 % of control | [19] 96 % of control | dose: 90.0 mg/kg/injection, schedule: Q04DX003 (ip), vehicle: saline with Tween-80 106 % of control | dose: 180.0 mg/kg/injection, schedule: Q04DX003 (ip), vehicle: saline with Tween-80 90 % of control

O=C1NC(=O)C(F)(F)C(O)N1 (configuration not stated)
inactive: dose: 45.0 mg/kg/injection, schedule: Q01DX009 (ip), vehicle: saline 117 % of control | dose: 65.0 mg/kg/injection, schedule: Q01DX009 (ip), vehicle: saline 94 % of control | dose: 100.0 mg/kg/injection, schedule: Q01DX009 (ip), vehicle: saline 92 % of control | dose: 100.0 mg/kg/injection, schedule: Q04DX003 (ip), vehicle: saline 108 % of control | dose: 150.0 mg/kg/injection, schedule: Q01DX009 (ip), vehicle: saline 97 % of control | dose: 200.0 mg/kg/injection, schedule: Q04DX003 (ip), vehicle: saline 117 % of control | dose: 220.0 mg/kg/injection, schedule: Q01DX009 (ip), vehicle: saline 90 % of control | dose: 400.0 mg/kg/injection, schedule: Q04DX003 (ip), vehicle: saline 120 % of control

CC1(C)c2cc3ccc(Cl)cc3nc2-c2ccccc2C1(C)O (configuration not stated)
inactive: [1] 89 % of control | dose: 100.0 mg/kg/injection, schedule: Q04DX003 (ip), vehicle: acetone 98 % of control | [2] 89 % of control | dose: 200.0 mg/kg/injection, schedule: Q04DX003 (ip), vehicle: acetone 101 % of control | dose: 400.0 mg/kg/injection, schedule: Q04DX003 (ip), vehicle: acetone 91 % of control

CC(=O)OC1C(C)OC(n2cnc3c(=S)nc[nH]c32)C1OC(C)=O (configuration not stated)
inactive: dose: 50.0 mg/kg/injection, schedule: Q01DX001 (ip), vehicle: carboxymethylcellulose (CMC) 103 % of control | dose: 100.0 mg/kg/injection, schedule: Q01DX001 (ip), vehicle: carboxymethylcellulose (CMC) 101 % of control | dose: 200.0 mg/kg/injection, schedule: Q01DX001 (ip), vehicle: carboxymethylcellulose (CMC) 108 % of control | dose: 400.0 mg/kg/injection, schedule: Q01DX001 (ip), vehicle: carboxymethylcellulose (CMC) 106 % of control

CSc1ncnc2c1ncn2C1OC(CCC(N)=O)C(O)C1O (configuration not stated)
inactive: dose: 50.0 mg/kg/injection, schedule: Q04DX002 (ip), vehicle: Klucel (hydroxypropylcellulose) (HPC) 98 % of control | [11] 101 % of control and 103 % of control | [13] 95 % of control | [15] 95 % of control

CCCCCCCCCCCCCCCC(=O)N(CCCN)CCCCN(CCCN)C(=O)CCCCCCCCCCCCCCC
inactive: dose: 100.0 mg/kg/injection, schedule: Q01DX001 (ip), vehicle: saline with Tween-80 100 % of control | [16] 103 % of control | [6] 110 % of control | dose: 200.0 mg/kg/injection, schedule: Q01DX001 (ip), vehicle: saline with Tween-80 96 % of control | [17] 96 % of control | [7] 107 % of control | dose: 400.0 mg/kg/injection, schedule: Q01DX001 (ip), vehicle: saline with Tween-80 104 % of control | [18] 96 % of control | [8] 111 % of control

COC(=O)C(OC(C)=O)C1OC(n2cnc3c(=S)nc[nH]c32)C(OC(C)=O)C1OC(C)=O (configuration not stated)
inactive: [10] 96 % of control | [12] 102 % of control | [14] 97 % of control

CC(C)=NNC(=O)CNc1ccc(Cl)c(C(F)(F)F)c1
inactive: [11] 97 % of control | [13] 104 % of control | [15] 111 % of control

O=C(O)/C=C/c1c2ccc(=O)cc-2oc2cc(O)ccc12
inactive: [3] 96 % of control | [4] 91 % of control | [5] 105 % of control
